Literature values, collected in US4096052A, “Electrochemical hydroxylation of certain aromatic compounds” (priority 1977, dated 1978).
Like-named read-outs stand apart in the source and are kept apart here. Each block holds one compound with its values, some of them ahead of it.

[1] = Table II (comparison acids), H2O, 25° C

Ka (H2 O) at 25° C [1]: 1.04 × 10^-4
pKa (H2 O) at 25° C [1]: 3.98
Structure (SMILES): O=C(O)CCCl [β-chloropropionic]

pKa (H2 O) at 25° C (water): 4.34
Structure (SMILES): C=CCC(=O)O [vinylacetic]

Ka (H2 O) (Table I, H2O, 18° C): 6.95 × 10^-3
pKa (H2 O) (water): 2.16
Structure (SMILES): O=C(O)c1ccccc1[N+](=O)[O-] [o-nitrobenzoic, o-nitrobenzoic acid]

Structure (SMILES): O=C(O)CBr [bromoacetic]
Ka (H2 O) at 25° C (Table I, H2O, 25° C): 2.05 × 10^-3

Structure (SMILES): O=C(O)C(Cl)(Cl)Cl [trichloroacetic, trichloroacetic acid]
Ka (H2 O) at 25° C (Table I, H2O, 25° C): 2 × 10^-1
pKa (H2 O) at 25° C (Table I, H2O, 25° C): 0.70

Ka (H2 O) at 25° C [1]: 1.5 × 10^-5
Structure (SMILES): CCCCC(=O)O [n-valeric]

Structure (SMILES): O=C(O)Cc1ccccc1 [phenylacetic]
Ka (H2 O) (Table II, H2O, 18° C): 5.2
pKa (H2 O) (Table II, H2O, 18° C): 4.28

Structure (SMILES): O=C(O)C(F)(F)F [trifluoroacetic, trifluoroacetic acid]
dissociation in aqueous solution (Table I footnote in place of Ka) (Table I footnote, H2O, 25° C): completely dissociated in aqueous solution
pKa (H2 O) at 25° C (Table I, H2O, 25° C): 0

Structure (SMILES): O=C(O)CCl [chloroacetic, chloroacetic acid]
Ka (H2 O) at 25° C (Table I, H2O, 25° C): 1.4 × 10^-3

Structure (SMILES): CC(Cl)C(=O)O (stereo not drawn) [α-chloropropionic]
Ka (H2 O) at 25° C (Table I, H2O, 25° C): 1.47 × 10^-3
pKa (H2 O) at 25° C (Table I, H2O, 25° C): 2.83

Ka (H2 O) at 25° C [1]: 1.34 × 10^-5
Structure (SMILES): CCC(=O)O [propionic]

Structure (SMILES): CC(Cl)CC(=O)O (stereo not drawn) [β-chlorobutyric]
Ka (H2 O) at 25° C [1]: 8.9 × 10^-5
pKa (H2 O) at 25° C [1]: 4.05

Structure (SMILES): O=C(O)C(Cl)Cl [dichloroacetic]
Ka (H2 O) at 25° C (Table I, H2O, 25° C): 3.32 × 10^-2

Structure (SMILES): CCC(Cl)C(=O)O (stereo not drawn) [α-chlorobutyric]
Ka (H2 O) at 25° C (Table I, H2O, 25° C): 1.39 × 10^-3
pKa (H2 O) at 25° C (Table I, H2O, 25° C): 2.86

Ka (H2 O) at 25° C (Table I, H2O, 25° C): 3.65 × 10^-3
pKa (H2 O) at 25° C (water): 2.41
Structure (SMILES): N#CCC(=O)O [cyanoacetic, cyanoacetic acid]
